Laboratory results: US9156874B2, “Double-liver-targeting phosphoramidate and phosphonoamidate prodrugs” (Nanjing Molecular Research, Inc., priority 2011, dated 2015)

Columns and labels:
[1] = Pharmacokinetic (PK) study in rats, plasma and liver levels by LC/MS-MS; format: in vivo, SD rats; conditions: for oral bioavailability: rats
Protocol: Pharmacokinetic (PK) study of ester prodrug (FDURPAE), parent drug (FDUR) and prodrug in sodium salt form (FDURPAN) in rats were completed according to following procedure.
SD rats (250-300 g, male, N=24) were used for FDURPAE, FDUR and FDURPAN, purchased from SLAC Laboratory Animal Co. LTD Qualification No.: SCXK SH 2007-0005, 13264. FDURPAE (0.096 mmol, 52.17 mg/kg) and FDUR (0.096 mmol, 23.7 mg/kg) were dosed orally by gavage with a single dose of each compound to rats in a volume of 5 mL/kg in 0.5% carboxymethylcellulose sodium. FDURPAN (0.096 mmol, 50.24 mg) was dosed both orally or iv by gavage with a single dose to rats in a volume of 5 mL/kg in water. The animal was restrained manually at designated time points. Approximately 500 μL of blood/time point was collected into K2EDTA tube via cardiac puncture for terminal bleeding under anesthesia with Isoflurane. Blood samples were put on ice after collection and then centrifuged to obtain plasma sample (2000 g, 5 min, 4° C.) within 15 minutes of sampling. […] All the plasma samples were immediately quenched for protein precipitation. Liver samples were removed at designated time points by first sacrificing the animal by CO2 inhalation, then perfusing the liver with ice cold saline and removing the left middle liver lobe, which was then snap frozen in dry ice. Liver samples were stored at approximately −80° C. until analysis. The liver homogenate was then processed for further analysis by LC/MS-MS. Plasma and liver samples were stored at approximately −80° C. until analysis.
Concentrations of parent drug and possible metabolites in both plasma and liver including FDURPAN (stable metabolite of FDURPAE), FDUR, 5FU and FDUR-MP were determined by LC/MS-MS, respectively.

HCV subgenomic replicon = assay: HCV replicon assay (Huh-7, luciferase reporter); format: cell-based
Protocol: Anti-Hepatitis C Activity. Anti-HCV activity and cytotoxicity of compounds disclosed herein were assayed following the method described in WO 2007/027248.
The anti-HCV activity and toxicity of the exemplary compounds can be tested in two biological assays—a cell-based HCV replicon assay and cytotoxicity assay (WO 2007/027248).
A human hepatoma cell line (Huh-7) containing replicating HCV subgenomic replicon with a luciferase reporter gene (luc-ubi-neo) was used to evaluate anti-HCV activity of the compounds. In this assay, level of luciferase signal correlates with the viral RNA replication directly. The HCV replicon-reporter cell line (NK/luc-ubi-neo) was cultured in DMEM medium supplemented with 10% fetal bovine serum and 0.5 mg/ml Geneticin (G418). Cells were maintained in a subconfluent state to ensure high levels of HCV replicon RNA synthesis.
To evaluate the antiviral activity of compounds, serial dilutions were prepared with concentrations ranging from 0.14 to 300 μM. Diluted compounds were transferred to a 96-well plate followed by the addition of replicon cells (6000 cells per well). Cells were incubated with the compounds for 48 h after which luciferase activity was measured. Reduction of luciferase signal reflected the decrease of HCV replicon RNA in the treated cells and used to determine the EC50 value (concentration which yielded a 50% reduction in luciferase activity).

## Cc1ccccc1CO[P@](=O)(N[C@H](C)C(=O)OC(C)C)OCC1OC(n2cc(F)c(=O)[nH]c2=O)CC1O (single isomer, unassigned) [FDURPAE (F5)]
[1]; rat, oral administration
  detection of active drug FDUR-MP in plasma: could not be detected
  detection of metabolite 5FU in plasma: could not be detected
[1]
  oral bioavailability: significantly improved oral bioavailability

## CC1(F)C(O)C(COP(=O)(NCc2ccccc2)OCc2ccccc2)OC1n1ccc(=O)[nH]c1=O (stereo not drawn) [F2]
HCV subgenomic replicon
  anti-HCV activity: did not show any anti-HCV activity

## Cc1ccccc1COP(=O)(NCc1ccccc1)OCC1OC(n2ccc(=O)[nH]c2=O)C(C)(F)C1O (stereo not drawn) [F3]
HCV subgenomic replicon
  anti-HCV activity: potent anti-HCV activity

## Cc1ccccc1COP(=O)(NCc1ccccc1)OCC1OC(n2cc(F)c(=O)[nH]c2=O)CC1O (stereo not drawn) [F4]
[1]
  oral bioavailability: very low
